In US20080279843A1, “Method For Improving Insulin Sensitivity By Administering an Inhibitor of Antitrypsin” (Essential SkinCare, LLC, priority 2003, published 2008):

Columns and labels:
[1] = test system: C57/Black female mice; assay: Glucose tolerance test with insulin and purified AT (Example 3); type: in vivo; details: highly purified AT 1.2 mg/mouse i.p. 24 h prior to insulin; glucose 3 g/kg i.p.
Description: C57/Black female mice weighing 23-25 g were fasted for 16 hours. Five animals were used for each of the three treatment groups. The first treatment group received intraperitoneal injections of 1200 μg purified AT, i.e. AT purified by the procedure of Example 1. Exactly 23 hours and 45 minutes after the AT was administered to the first treatment group, the animals in the first and second treatment group received 0.5 I.U. of insulin. Exactly 15 minutes after the insulin was administered (i.e., 24 hours after AT was administered to the first treatment group), glucose (3 g/kg) was injected intraperitoneally into the first, second and third treatment group. Blood samples were immediately measured with the fast Glucose C test (Wako Chemicals Inc. Richmond, Va., USA). The data presented are the mean ±S.D. of five determinations, one with each animal.

[2] = test system: differentiated rat L6 muscle cells; assay: Cellular uptake of D-[14C]glucose; type: cell-based
Description: Rat L6 skeletal muscle cells were obtained from the American Type Culture Collection, Rockville, Md. L6 cell monolayers were induced to differentiate in Minimal Essential Medium (MEM) containing 2% (v/v) fetal bovine serum (FBS) and 1% (v/v) antibiotic/antimycotic solution. The cells were fed fresh medium every 48 hours. Myoblast differentiation, which occurred by about the 7-9th day, was monitored by phase contrast microscopy. Differentiated L6 cells are widely used models for studying glucose metabolism in the skeletal muscle. The present study was focused on these cells, because skeletal muscle accounts for about 70-80% of total blood glucose metabolism in the human body.
To examine cellular glucose uptake and metabolism, differentiated (attached) cells in 12-well plates were incubated at 37° C. in a CO2 incubator (95% air: 5% CO2) with D-[^14C]glucose (1 μCi/mL) in 2% FBS-containing medium containing 5.5 mM unlabeled glucose for 0.5-6 hours as indicated at the corresponding Figures. At the termination of incubation, the medium was removed. An aliquot of the medium was taken to determine the loss of [^14C]glucose from the medium which corresponds to its uptake by cells. Cells were washed twice with 3 ml medium to remove traces of medium containing unincorporated radioactivity. Ice-cold 99.8% methanol/0.2% water (v/v) mixture (1 ml) was then added to the monolayers and cells were extracted for 2 hours at −20° C. […] The methanol phase (1 ml) and a following 1 ml methanol wash were added to 2 ml chloroform followed by the addition of 3 ml water. Of the resulting two phases (separation was facilitated by brief centrifugation), the lower phase contained the total radiolabeled lipids, while the upper phase contained [^14C]glucose.
Aliquots of the upper and lower phases were taken to scintillation vials to determine the amounts of radiolabeled glucose and total lipids, respectively, by liquid scintillation counting. Precipitated [^14C]glycogen was suspended in 0.75 ml of 1 M NaOH and transferred to scintillation vial. This procedure was repeated with another 0.75 ml aliquot of NaOH. To neutralize the suspension, […] (approximately 150 μL) was then added to the vials, followed by the addition of 8.5 ml Ecolume (scintillation fluid). While the 1 M NaOH suspension contained some particulate material (mostly protein which was not labeled with radiolabeled glucose), no precipitate remained in the suspension after addition of Ecolume. […] No additional radioactivity could be removed from the well by neutralized 30% KOH.
Three groups of differentiated L6 cells, incubated in 12-well plates in 2% FBS-containing medium, were treated as follows. A first control group ([…]) was untreated. A second group (▴) was treated with 500 nM insulin for 30 min. A third group (▪) was treated first with 0.4 mg/ml of AT followed by an addition of 500 nM insulin for 30 min. Following the addition of D-[^14C]glucose, each group was incubated in the continuous presence of insulin and AT, as described above, for 0.5-6 hours.
Four groups of differentiated L6 cells, incubated in 12-well plates in 2% FBS-containing medium, were treated as follows. A first control group was untreated. A second group was treated with 500 nM insulin for 30 min. A third group was treated with 0.05 to 0.4 mg/ml of AT for 10 min. Finally, a fourth group was treated with 0.05 to 0.4 mg/ml of AT for 10 min followed by the addition of 500 nM insulin for 30 min. […]

For α1-antitrypsin [AT], the “Effect of AT on the action of insulin on blood glucose level” value [1] was “blocked the action of insulin”, the “Effect of AT on the insulin effect on cellular [14C]glucose, short incubation” value ([2]; 0.4 mg/ml AT, 500 nM insulin, 30 min incubation) was “no such inhibitory effects” and the “Effect of AT on insulin-stimulated uptake of D-[14C]glucose” value ([2]; FIG. 3A, 0.4 mg/ml purified AT, incubations for 2 hrs or 6 hours) was “inhibited both insulin effects”. For the same substance, the “Effect of AT on cellular level of [14C]glucose in the absence of insulin” value ([2]; FIG. 4A, 0.05 to 0.4 mg/ml AT, 5 hours) was “did not significantly affect” and the “Decrease of cellular level of [14C]glucose by AT in the presence of insulin” value ([2]; FIG. 4A, 0.2 to 0.4 mg/ml AT, 500 nM insulin, 5 hours) was “at least 50%”.
